# Source: patent US7026339B2, “Inhibitors of HCV NS5B polymerase” (priority 2003, dated 2006)
# System: HuH-7 replicon cells 5–15 and 9–13 (HCV replication)
# Test: Inhibition of viral replication in HuH-7 replicon cells (HCV RNA / GAPDH RNA by multiplex RT-PCR)
# Type: cell-based
# Conditions: Hepatitis C virus, 72 h; inhibiting 50% of replication; HuH-7 replicon cells, 3 days; read-out: IC50
# Procedure: Compounds were evaluated for inhibition of viral replication according to published procedures (Bartenschlager, R., et. al., Science, 1999, 285, 110) with modifications as follows.
# HuH-7 replicon cells 5–15 and 9–13 were cultured in Dulbecco's minimal essential medium (DMEM) containing high glucose and supplemented with 10% fetal bovine serum (FBS), L-glutamine (2 mM), non-essential amino acids (1×), Penicillin (100 IU/mL)/Streptomycin (100 μg/mL) and G418 (Geneticin, 750 μg/mL). Unless otherwise specified, all media components were obtained from Invitrogen. Replicon cell line stocks were maintained as sub-confluent monolayers by passaging every Monday (1:6 split) and Thursday (1:10 split) and incubated at 37° C. with 5% CO2. Tissue culture plates (96-well white clear bottom plates, Corning #3610) were seeded at 7×10^3 cells/well and incubated for 24 hours prior to addition of the compounds.
# Compounds in dry powder form were diluted in DMSO (30 mM stock). Serial dilutions of each Compound in DMSO (10 mM–0.1 mM) were performed in a 96-well polypropylene plate using a microtiter format. Culture media (200 μl) was added to the corresponding wells of a sterile 96-well round bottom plate. Diluted compound (2 μl) was added to the corresponding wells of the medial plate (final compound concentrations: 100 μM–1 μM). Culture media was removed from the corresponding wells of the 96-well plate containing the replicon cells and 150 μl diluted compound added. Media containing 1% DMSO and a serially diluted IFN were included on each plate. The cultures were incubated at 37° C. with 5% CO2 for 3 days. Cultures were observed visually for cytotoxicity or compound precipitation prior to RNA extraction described below.
# Total cellular RNA was extracted by spin column technology (RNeasy 96, Qiagen) using the vacuum methodology according to the manufacturer's protocol. In brief, culture media was removed and 100 μl RLT lysis buffer containing 0.14M β-mercaptoethanol (β-ME) was added to each well. The plate was kept flat on the laboratory bench and shaken vigorously to lyse the cells. An equal volume of 70% ETOH was mixed with the lysate and added to the corresponding columns of the RNeasy 96-well plate. Vacuum was applied to draw the lysate through the filters. After ventilating the plate, buffer RW1 (1 mL) was drawn through each column. The waste tray was emptied and the filters washed twice with buffer RPE (1 mL/wash). After ventilating the tray, the RNeasy plate was removed and the bottom of the plate struck several times on a stack of paper towels to remove excess wash buffer. The waste tray was removed from the vacuum apparatus and the RNeasy 96-well plate dried by applying vacuum for 10 minutes. Total cellular RNA was eluted from the columns with two washes of 60 μl RNase-free water.
# Relative quantitative multiplex RT-PCR was performed using TaqMan (TM) EZ RT Core Reagent kit (Perkin Elmer) according to the manufacturer's protocol (PE Applied Biosystems User Bulletin #2). Primer 061 (NT 61–82) and 139 (NT 139–158) amplifying a short region in the 5′ untranslated region of the HCV genome were utilized at 300 nM final concentrations. Probe #3 (NT 97–119) labeled with FAM reporter dye was utilized at 200 nM final concentration. Pre-developed human GAPDH primers and probe labeled with VIC reporter dye were obtained from PE Applied Biosystems (# 4310884E) and used according to the manufacturer's protocol. TM RT-PCR master mix was prepared containing the above primers/probe for both target RNA. Total cellular RNA (2 μl) was added to the reaction tubes of a 96-well optical plate that corresponded to the wells of the replicon culture plate. The final volume of each reaction was 50 μl. A standard curve was prepared from ten-fold serial dilutions of total cellular RNA extracated from 10^6 replicon cells and eluted in 30 μl RNase-free water. […]
row,SMILES,IC50 [µM]
1,"O=C(Cc1c(F)ccc(F)c1F)N/N=C/c1ccccc1OS(=O)(=O)c1ccc(C(F)(F)F)cc1 [Compound 27, 2-((E)-{2-[2-(2,3,6-trifluorophenyl)acetyl]hydrazono}methyl)-phenyl 4-(trifluoromethyl)benzenesulfonate]",< 5
2,"O=C(Cc1c(F)cccc1F)N/N=C/c1ccccc1OS(=O)(=O)c1ccc(C(F)(F)F)cc1 [Compound 28, 2-((E)-{2-[2-(2,6-difluorophenyl)acetyl]hydrazono}methyl)-phenyl 4-(trifluoromethyl)benzenesulfonate]",< 5
3,"O=C(Cc1ccccn1)N/N=C/c1ccccc1OS(=O)(=O)c1ccc(C(F)(F)F)cc1 [Compound 29, 2-{(E)-[2-(2-pyridin-2-ylacetyl)hydrazono]methyl}phenyl 4-(trifluoromethyl)benzenesulfonate]",< 5
4,"O=C(CCc1cccnc1)N/N=C/c1ccccc1OS(=O)(=O)c1ccc(C(F)(F)F)cc1 [Compound 30, 2-{(E)-[2-(3-pyridin-3-ylpropanoyl)hydrazono]methyl}phenyl 4-(trifluoromethyl)benzenesulfonate]",< 5
5,"O=C(Cc1cc(F)ccc1F)N/N=C/c1ccccc1OS(=O)(=O)c1ccc(C(F)(F)F)cc1 [Compound 31, 2-((E)-{2-[2-(2,5-difluorophenyl)acetyl]hydrazono}methyl)-phenyl 4-(trifluoromethyl)benzenesulfonate]",< 5
6,"O=C(Cc1cc(C(F)(F)F)ccc1C(F)(F)F)N/N=C/c1ccccc1OS(=O)(=O)c1ccc(C(F)(F)F)cc1 [Compound 32, 2-[(E)-(2-{2-[2,5-bis(trifluoromethyl)phenyl]acetyl}hydrazono)-methyl]phenyl 4-(trifluoromethyl)benzenesulfonate]",< 5
7,"O=C(Cc1c(F)cccc1C(F)(F)F)N/N=C/c1ccccc1OS(=O)(=O)c1ccc(C(F)(F)F)cc1 [Compound 33, 2-[(E)-(2-{2-[2-fluoro-6-(trifluoromethyl)phenyl]acetyl}hydrazono)-methyl]phenyl 4-(trifluoromethyl)benzenesulfonate]",< 5
8,"O=C(Cc1ccc(C(F)(F)F)cc1)N/N=C/c1ccccc1OS(=O)(=O)c1ccc(C(F)(F)F)cc1 [Compound 34, 2-[(E)-(2-{2-[4-(trifluoromethyl)phenyl]acetyl}hydrazono)-methyl]phenyl 4-(trifluoromethyl)benzenesulfonate]",< 5
9,"O=C(Cc1cccc(C(F)(F)F)c1)N/N=C/c1ccccc1OS(=O)(=O)c1ccc(C(F)(F)F)cc1 [Compound 35, 2-[(E)-(2-{2-[3-(trifluoromethyl)phenyl]acetyl}hydrazono)-methyl]phenyl 4-(trifluoromethyl)benzenesulfonate]",< 5
10,"COc1ccccc1CC(=O)N/N=C/c1ccccc1OS(=O)(=O)c1ccc(C(F)(F)F)cc1 [Compound 36, 2-((E)-{2-[2-(2-methoxyphenyl)acetyl]hydrazono}methyl)-phenyl 4-(trifluoromethyl)benzenesulfonate]",5 to 50
11,"COc1ccc(OC)c(CC(=O)N/N=C/c2ccccc2OS(=O)(=O)c2ccc(C(F)(F)F)cc2)c1 [Compound 37, 2-((E)-{2-[2-(2,5-dimethoxyphenyl)acetyl]hydrazono}methyl)-phenyl 4-(trifluoromethyl)benzenesulfonate]",< 5
12,"O=C(Cc1ccc(Cl)c(Cl)c1)N/N=C/c1ccccc1OS(=O)(=O)c1ccc(C(F)(F)F)cc1 [Compound 38, 2-((E)-{2-[2-(3,4-dichlorophenyl)acetyl]hydrazono}methyl)-phenyl 4-(trifluoromethyl)benzenesulfonate]",< 5
13,"O=C(Cc1cc(C(F)(F)F)cc(C(F)(F)F)c1)N/N=C/c1ccccc1OS(=O)(=O)c1ccc(C(F)(F)F)cc1 [Compound 39, 2-[(E)-(2-{2-[3,5-bis(trifluoromethyl)phenyl]acetyl}hydrazono)-methyl]phenyl 4-(trifluoromethyl)benzenesulfonate]",< 5
